Results taken from patent US20220289794A1, “SYNTHETIC ANTIMICROBIAL PEPTIDES” (priority 2019, published 2022).
≈ marks a conversion by molar mass, not a printed value. Like-named read-outs stand apart in the source and are kept apart here. Non-standard residues stand in square brackets, D forms with d. Residues, ends and D or L forms follow the SMILES beside them. Bip = N[C@@H](Cc1ccc(-c2ccccc2)cc1)C(=O)O; Dip = N[C@H](C(=O)O)C(c1ccccc1)c1ccccc1; 2Nal = N[C@@H](Cc1ccc2ccccc2c1)C(=O)O

Assays:
[1] = system: Pseudomonas aeruginosa (ATCC 27883)
[2] = system: human red blood cells; set-up: unit not given beside the values
[3] = system: S. aureus ATCC 29213
[4] = system: Methicillin-resistant Staphylococcus aureus MRSA (ATCC BAA-1556)
[5] = system: Escherichia coli (ATCC 25922)

MIC P. aeruginosa ATCC 27883 ([1]; ATCC 27883) [µg/mL] | MIC S. aureus ATCC 29213 ([3]; ATCC 29213) [µg/mL] | MIC MRSA ATCC BAA-1556 ([4]; ATCC BAA-1556) [µg/mL] | MIC E. coli ATCC 25922 ([5]; ATCC 25922) [µg/mL] | Compound | MIC P. aeruginosa ATCC 27883 [1] [µg/mL] | MIC S. aureus ATCC 29213 [3] [µg/mL] | MIC MRSA ATCC BAA-1556 [4] [µg/mL] | MIC E. coli ATCC 25922 [5] [µg/mL] | also measured
– | – | – | – | N=C(N)NCCC[C@@H]1NC(=O)[C@H](CCCNC(=N)N)NC(=O)[C@H](Cc2c[nH]c3ccccc23)NC(=O)[C@H](Cc2c[nH]c3ccccc23)NC(=O)[C@H](Cc2c[nH]c3ccccc23)NC(=O)[C@H](Cc2c[nH]c3ccccc23)NC(=O)[C@H](Cc2c[nH]c3ccccc23)NC(=O)[C@H](Cc2c[nH]c3ccccc23)NC(=O)[C@H](Cc2c[nH]c3ccccc23)NC(=O)[C@H](CCCNC(=N)N)NC1=O [IFX-306] (cyclo(RRRWWWWWWW)) | – | – | – | – | MIC P. aeruginosa ATCC 27883 ([1]; Table 19): 256 µg/mL (≈ 144 µM)
– | – | – | – | N=C(N)NCCC[C@@H]1NC(=O)[C@H](CCCNC(=N)N)NC(=O)[C@H](Cc2c[nH]c3ccccc23)NC(=O)[C@H](C(c2ccccc2)c2ccccc2)NC(=O)[C@H](C(c2ccccc2)c2ccccc2)NC(=O)[C@H](CCCNC(=N)N)NC(=O)[C@H](CCCNC(=N)N)NC1=O [IFX-028, c[Arg-Arg-Arg-Arg-Dip-Dip-Trp]] (cyclo([Dip][Dip]WRRRR)) | – | – | – | – | HC50 [2]: 370
– | – | – | – | N=C(N)NCCC[C@@H]1NC(=O)[C@H](CCCNC(=N)N)NC(=O)[C@H](CCCNC(=N)N)NC(=O)[C@H](C(c2ccccc2)c2ccccc2)NC(=O)[C@H](C(c2ccccc2)c2ccccc2)NC(=O)[C@H](Cc2c[nH]c3ccccc23)NC(=O)[C@H](CCCNC(=N)N)NC1=O [IFX-026, c[Arg-Arg-Arg-Arg-Trp-Dip-Dip]] (cyclo([Dip][Dip]RRRRW)) | – | – | – | – | HC50 [2]: 240
– | – | – | – | N=C(N)NCCC[C@@H]1NC(=O)[C@H](CCCNC(=N)N)NC(=O)[C@H](CCCNC(=N)N)NC(=O)[C@H](Cc2ccc3ccccc3c2)NC(=O)[C@H](Cc2c[nH]c3ccccc23)NC(=O)[C@H](Cc2ccc3ccccc3c2)NC(=O)[C@H](CCCNC(=N)N)NC1=O [IFX-030, c[Arg-Arg-Arg-Arg-NaI-Trp-NaI]] (cyclo(RRRR[2Nal]W[2Nal])) | – | – | – | – | HC50 [2]: 430
– | – | – | – | c[PEG1-Arg-Arg-Arg-Arg-Arg-PEG1-Dip-Dip-Dip] [IFX-050-1] | 128 | 16 | 32 | 32 | –
50 (≈ 34 µM) | 3.1 (≈ 2.11 µM) | 3.1 (≈ 2.11 µM) | 25 (≈ 17 µM) | N=C(N)NCCC[C@H](NC(=O)[C@H](CCCNC(=N)N)NC(=O)[C@H](CCCNC(=N)N)NC(=O)[C@@H](N)CCCNC(=N)N)C(=O)N[C@@H](CCCNC(=N)N)C(=O)N[C@H](C(=O)N[C@H](C(=O)N[C@H](C(=O)O)C(c1ccccc1)c1ccccc1)C(c1ccccc1)c1ccccc1)C(c1ccccc1)c1ccccc1 [IFX-012-1, NH2-Arg-Arg-Arg-Arg-Arg-Dip-Dip-Dip-OH] (H-RRRRR[Dip][Dip][Dip]-OH) | – | – | – | – | –
25 (≈ 19.3 µM) | 3.1 (≈ 2.39 µM) | 6.2 (≈ 4.79 µM) | >100 | N=C(N)NCCC[C@@H]1NC(=O)[C@H](CCCNC(=N)N)NC(=O)[C@H](CCCNC(=N)N)NC(=O)[C@H](Cc2ccc(-c3ccccc3)cc2)NC(=O)[C@H](Cc2ccc(-c3ccccc3)cc2)NC(=O)[C@H](Cc2ccc(-c3ccccc3)cc2)NC(=O)[C@H](CCCNC(=N)N)NC1=O [IFX-007, c[Arg-Arg-Arg-Arg-Bip-Bip-Bip]] (cyclo([Bip][Bip][Bip]RRRR)) | – | – | – | – | –
25 (≈ 19 µM) | 6.2 (≈ 4.72 µM) | 6.2 (≈ 4.72 µM) | >100 | N=C(N)NCCC[C@H](NC(=O)[C@H](CCCNC(=N)N)NC(=O)[C@H](CCCNC(=N)N)NC(=O)[C@@H](N)CCCNC(=N)N)C(=O)N[C@@H](Cc1ccc(-c2ccccc2)cc1)C(=O)N[C@@H](Cc1ccc(-c2ccccc2)cc1)C(=O)N[C@@H](Cc1ccc(-c2ccccc2)cc1)C(=O)O [IFX-007-1, NH2-Arg-Arg-Arg-Arg-Bip-Bip-Bip-OH] (H-RRRR[Bip][Bip][Bip]-OH) | – | – | – | – | –
– | – | – | – | c[Arg-Arg-Arg-Arg-5fW-5fW-5fW-5fW] [IFX-038] | 100 | 12.5 | 25 | 50 | –
– | – | – | – | c[Arg-arg-PEG4-Arg-arg-Trp-naI-naI] [IFX-052] | 128 | 32 | 32 | 64 | –
>100 | >100 | >100 | >100 | N=C(N)NCCC[C@H](NC(=O)[C@H](CCCNC(=N)N)NC(=O)[C@H](CCCNC(=N)N)NC(=O)[C@@H](N)CCCNC(=N)N)C(=O)N[C@@H](Cc1ccc(-c2ccccc2)cc1)C(=O)N[C@@H](Cc1ccc(-c2ccccc2)cc1)C(=O)N[C@@H](Cc1ccc(-c2ccccc2)cc1)C(=O)N[C@@H](Cc1ccc(-c2ccccc2)cc1)C(=O)O [IFX-004-1, NH2-Arg-Arg-Arg-Arg-Bip-Bip-Bip-Bip-OH] (H-RRRR[Bip][Bip][Bip][Bip]-OH) | – | – | – | – | –
50 (≈ 31.3 µM) | 25 (≈ 15.6 µM) | 25 (≈ 15.6 µM) | 50 (≈ 31.3 µM) | N=C(N)NCCC[C@@H]1NC(=O)CNC(=O)CNC(=O)[C@H](Cc2c[nH]c3ccccc23)NC(=O)[C@H](Cc2c[nH]c3ccccc23)NC(=O)[C@H](Cc2c[nH]c3ccccc23)NC(=O)[C@H](Cc2c[nH]c3ccccc23)NC(=O)CNC(=O)CNC(=O)[C@H](CCCNC(=N)N)NC(=O)[C@H](CCCNC(=N)N)NC(=O)[C@H](CCCNC(=N)N)NC1=O [IFX-044] (cyclo(GGRRRRGGWWWW)) | – | – | – | – | –
– | – | – | – | c[PEG1-Arg-Arg-Arg-Arg-PEG1-Trp-Trp-Trp-Trp] [IFX-046] | 50 | 25 | 25 | 50 | –
– | – | – | – | c[PEG1-Arg-Arg-Arg-Arg-PEG1-Dip-Dip-Dip] [IFX-048] | 64 | 16 | 16 | 64 | –
– | – | – | – | c[Arg-Arg-Arg-Arg-7metW-7metW-7metW-7metW] [IFX-042] | 50 | 6.1 | 6.2 | 25 | –
– | – | – | – | c[Arg-Arg-Arg-Arg-1meW-1meW-1meW-1meW] [IFX-041] | 25 | 3.1 | 6.2 | 25 | –
– | – | – | – | c[PEG4-Arg-arg-Arg-arg-Trp-naI-naI] [IFX-053] | 128 | 16 | 16 | 64 | –
>100 | 50 (≈ 43.2 µM) | 50 (≈ 43.2 µM) | >100 | N=C(N)NCCC[C@H](NC(=O)[C@H](CCCNC(=N)N)NC(=O)[C@@H](N)CCCNC(=N)N)C(=O)N[C@@H](Cc1ccc(-c2ccccc2)cc1)C(=O)N[C@@H](Cc1ccc(-c2ccccc2)cc1)C(=O)N[C@@H](Cc1ccc(-c2ccccc2)cc1)C(=O)O [IFX-001-1, NH2-Arg-Arg-Arg-Bip-Bip-Bip-OH] (H-RRR[Bip][Bip][Bip]-OH) | – | – | – | – | –
>100 | 50 (≈ 43.9 µM) | 50 (≈ 43.9 µM) | >100 | N=C(N)NCCC[C@@H]1NC(=O)[C@H](CCCNC(=N)N)NC(=O)[C@H](Cc2ccc(-c3ccccc3)cc2)NC(=O)[C@H](Cc2ccc(-c3ccccc3)cc2)NC(=O)[C@H](Cc2ccc(-c3ccccc3)cc2)NC(=O)[C@H](CCCNC(=N)N)NC1=O [IFX-001, c[Arg-Arg-Arg-Bip-Bip-Bip]] (cyclo([Bip][Bip][Bip]RRR)) | – | – | – | – | –
– | – | – | – | c[Arg-Arg-Arg-Arg-5brW-5brW-5brW-5brW] [IFX-039] | >100 | 25 | 25 | >100 | –
>100 | 50 (≈ 32.9 µM) | >100 | >100 | N=C(N)NCCC[C@@H]1NC(=O)[C@H](CCCNC(=N)N)NC(=O)[C@H](CCCNC(=N)N)NC(=O)[C@H](Cc2ccc(-c3ccccc3)cc2)NC(=O)[C@H](Cc2ccc(-c3ccccc3)cc2)NC(=O)[C@H](Cc2ccc(-c3ccccc3)cc2)NC(=O)[C@H](Cc2ccc(-c3ccccc3)cc2)NC(=O)[C@H](CCCNC(=N)N)NC1=O [IFX-004, c[Arg-Arg-Arg-Arg-Bip-Bip-Bip-Bip]] (cyclo([Bip][Bip][Bip][Bip]RRRR)) | – | – | – | – | –
– | – | – | – | c[PEG2-Arg-Arg-Arg-Arg-PEG2-Trp-Trp-Trp-Trp] [IFX-047] | 50 | 50 | 50 | 100 | –
– | – | – | 16 (≈ 11.7 µM) | N=C(N)NCCC[C@H]1NC(=O)[C@H](Cc2c[nH]c3ccccc23)NC(=O)[C@H](Cc2c[nH]c3ccccc23)NC(=O)[C@H](Cc2c[nH]c3ccccc23)NC(=O)[C@H](Cc2c[nH]c3ccccc23)NC(=O)[C@@H](CCCNC(=N)N)NC(=O)[C@@H](CCCNC(=N)N)NC(=O)[C@@H](CCCNC(=N)N)NC1=O [IFX-309] (cyclo([dR][dR][dR][dR]WWWW)) | – | – | – | – | –
– | – | – | – | c[PEG2-Arg-Arg-Arg-Arg-PEG2-Dip-Dip-Dip] [IFX-049] | 64 | 8 | 8 | 128 | –
– | – | – | – | c[Arg-arg-Arg-arg-PEG4-Trp-naI-naI] [IFX-051] | 128 | 32 | 32 | 128 | –
– | – | – | – | c[PEG2-Arg-Arg-Arg-Arg-Arg-PEG2-Dip-Dip-Dip] [IFX-050-2] | 128 | 16 | 16 | 64 | –
